Data published in PubChem BioAssay (NCI).
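Tested at 5 concentrations; 48 h exposure; 96-well plates; endpoints linearly interpolated, else capped at highest concentration. GI50 is the concentration that inhibits growth by half. The concentration for full growth arrest is given as TGI.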

What was measured:
Assay in all cases: NCI tumour cell line growth inhibition, 48 h
786-0 renal = system: 786-0 renal
HT29 colon = system: HT29 colon
A549 NSCLC = system: A549 NSCLC
SK-MEL-28 melanoma = system: SK-MEL-28 melanoma
HS 578T breast = system: HS 578T breast
RXF 393 renal = system: RXF 393 renal
SF-539 CNS = system: SF-539 CNS
NCI-H226 lung = system: NCI-H226 lung
OVCAR-5 ovarian = system: OVCAR-5 ovarian
HL-60(TB) leukemia = system: HL-60(TB) leukemia
KM12 colon = system: KM12 colon
A498 renal = system: A498 renal
BT-549 breast = system: BT-549 breast
SR leukemia = system: SR leukemia
TK-10 renal = system: TK-10 renal
PC-3 prostate = system: PC-3 prostate
SNB-19 CNS = system: SNB-19 CNS
NCI-H23 lung = system: NCI-H23 lung
MDA-MB-231 breast = system: MDA-MB-231 breast
K-562 leukemia = system: K-562 leukemia
SNB-75 CNS = system: SNB-75 CNS
OVCAR-8 ovarian = system: OVCAR-8 ovarian
SN12C renal = system: SN12C renal
SK-MEL-2 melanoma = system: SK-MEL-2 melanoma
MOLT-4 leukemia = system: MOLT-4 leukemia
CCRF-CEM leukemia = system: CCRF-CEM leukemia
UO-31 renal = system: UO-31 renal
LOX IMVI melanoma = system: LOX IMVI melanoma
MCF7 breast = system: MCF7 breast
HCT-15 colon = system: HCT-15 colon
HOP-62 NSCLC = system: HOP-62 NSCLC
SF-268 CNS = system: SF-268 CNS
HCT-116 colon = system: HCT-116 colon
NCI/ADR-RES ovarian = system: NCI/ADR-RES ovarian
RPMI-8226 leukemia = system: RPMI-8226 leukemia
U251 CNS = system: U251 CNS
ACHN renal = system: ACHN renal
UACC-62 melanoma = system: UACC-62 melanoma
HOP-92 NSCLC = system: HOP-92 NSCLC
M14 melanoma = system: M14 melanoma
UACC-257 melanoma = system: UACC-257 melanoma
DU-145 prostate = system: DU-145 prostate
SW-620 colon = system: SW-620 colon
EKVX NSCLC = system: EKVX NSCLC
SF-295 CNS = system: SF-295 CNS
NCI-H522 lung = system: NCI-H522 lung
HCC-2998 colon = system: HCC-2998 colon
MALME-3M melanoma = system: MALME-3M melanoma
NCI-H460 lung = system: NCI-H460 lung
IGROV1 ovarian = system: IGROV1 ovarian
CAKI-1 renal = system: CAKI-1 renal
SK-MEL-5 melanoma = system: SK-MEL-5 melanoma
MDA-MB-435 = system: MDA-MB-435
SK-OV-3 ovarian = system: SK-OV-3 ovarian
OVCAR-4 ovarian = system: OVCAR-4 ovarian

Work on Cn1cc(-c2ccc(-c3cn(C)c4ccc(Cl)cc34)[nH]2)c2cc(Cl)ccc21 yielded a GI50 (786-0 renal) of 5310 nM, a TGI (786-0 renal) of 29500 nM and a GI50 (HT29 colon) of 3920 nM. The TGI (HT29 colon) was 16000 nM, the GI50 (A549 NSCLC) was 1790 nM and the TGI (A549 NSCLC) was 4190 nM. For the same molecule, the GI50 (SK-MEL-28 melanoma) was 1820 nM, the TGI (SK-MEL-28 melanoma) was 3950 nM and the GI50 (HS 578T breast) was 1140 nM. It also gave a TGI (HS 578T breast) of 5370 nM, a GI50 (RXF 393 renal) of 882 nM and a TGI (RXF 393 renal) of 2310 nM. The GI50 (SF-539 CNS) was 1140 nM, the TGI (SF-539 CNS) was 3450 nM and the GI50 (NCI-H226 lung) was 1930 nM. For the same molecule, the TGI (NCI-H226 lung) was 4250 nM, the GI50 (OVCAR-5 ovarian) was 663 nM and the TGI (OVCAR-5 ovarian) was 2820 nM. It also gave a GI50 (HL-60(TB) leukemia) of 438 nM, a TGI (HL-60(TB) leukemia) of 2620 nM and a GI50 (KM12 colon) of 1200 nM. For the same molecule, the TGI (KM12 colon) was 3770 nM, the GI50 (A498 renal) was 4170 nM and the TGI (A498 renal) was 19000 nM. For the same molecule, the GI50 (BT-549 breast) was 419 nM, the TGI (BT-549 breast) was 1710 nM and the GI50 (SR leukemia) was 617 nM. The TGI (SR leukemia) was 3190 nM, the GI50 (TK-10 renal) was 3140 nM and the TGI (TK-10 renal) was 9800 nM. For the same molecule, the GI50 (PC-3 prostate) was 434 nM, the TGI (PC-3 prostate) was 1720 nM and the GI50 (SNB-19 CNS) was 1390 nM. It also gave a TGI (SNB-19 CNS) of 4060 nM, a GI50 (NCI-H23 lung) of 3230 nM and a TGI (NCI-H23 lung) of 24700 nM. For the same molecule, the GI50 (MDA-MB-231 breast) was 442 nM, the TGI (MDA-MB-231 breast) was 1980 nM and the GI50 (K-562 leukemia) was 377 nM. It also gave a TGI (K-562 leukemia) of 2030 nM, a GI50 (SNB-75 CNS) of 1750 nM and a TGI (SNB-75 CNS) of 4380 nM. It also gave a GI50 (OVCAR-8 ovarian) of 1440 nM, a TGI (OVCAR-8 ovarian) of 5580 nM and a GI50 (SN12C renal) of 2390 nM. It also gave a TGI (SN12C renal) of 5720 nM, a GI50 (SK-MEL-2 melanoma) of 1990 nM and a TGI (SK-MEL-2 melanoma) of 4910 nM. The GI50 (MOLT-4 leukemia) was 2850 nM, the TGI (MOLT-4 leukemia) was 11000 nM and the GI50 (CCRF-CEM leukemia) was 373 nM. It also gave a TGI (CCRF-CEM leukemia) of 1700 nM, a GI50 (UO-31 renal) of 208 nM and a TGI (UO-31 renal) of 503 nM. For the same molecule, the GI50 (LOX IMVI melanoma) was 1220 nM, the TGI (LOX IMVI melanoma) was 2670 nM and the GI50 (MCF7 breast) was 2850 nM. It also gave a TGI (MCF7 breast) of 15400 nM, a GI50 (HCT-15 colon) of 1100 nM and a TGI (HCT-15 colon) of 2500 nM. For the same molecule, the GI50 (HOP-62 NSCLC) was 2250 nM, the TGI (HOP-62 NSCLC) was 7760 nM and the GI50 (SF-268 CNS) was 1380 nM. It also gave a TGI (SF-268 CNS) of 4090 nM, a GI50 (HCT-116 colon) of 1990 nM and a TGI (HCT-116 colon) of 5620 nM. It also gave a GI50 (NCI/ADR-RES ovarian) of 1840 nM, a TGI (NCI/ADR-RES ovarian) greater than 100000 nM and a GI50 (RPMI-8226 leukemia) of 356 nM. For the same molecule, the TGI (RPMI-8226 leukemia) was 1310 nM, the GI50 (U251 CNS) was 398 nM and the TGI (U251 CNS) was 1290 nM. It also gave a GI50 (ACHN renal) of 1080 nM, a TGI (ACHN renal) of 2280 nM and a GI50 (UACC-62 melanoma) of 946 nM. It also gave a TGI (UACC-62 melanoma) of 2390 nM, a GI50 (HOP-92 NSCLC) of 1150 nM and a TGI (HOP-92 NSCLC) of 3280 nM. The GI50 (M14 melanoma) was 1620 nM, the TGI (M14 melanoma) was 4190 nM and the GI50 (UACC-257 melanoma) was 2250 nM. It also gave a TGI (UACC-257 melanoma) of 4490 nM, a GI50 (DU-145 prostate) of 3570 nM and a TGI (DU-145 prostate) of 15300 nM. It also gave a GI50 (SW-620 colon) of 647 nM and a TGI (SW-620 colon) of 3140 nM.

In the case of COc1ccc2nc3ccccc3c(NCc3ccc(Cl)cc3)c2c1, the GI50 (786-0 renal) is reported as 1730 nM, the TGI (786-0 renal) is reported as 3200 nM and the GI50 (HT29 colon) is reported as 2020 nM. The TGI (HT29 colon) was 7080 nM, the GI50 (A549 NSCLC) was 2060 nM and the TGI (A549 NSCLC) was 4890 nM. For the same molecule, the GI50 (SK-MEL-28 melanoma) was 1780 nM, the TGI (SK-MEL-28 melanoma) was 3360 nM and the GI50 (RXF 393 renal) was 1450 nM. For the same molecule, the TGI (RXF 393 renal) was 3000 nM, the GI50 (EKVX NSCLC) was 2300 nM and the TGI (EKVX NSCLC) was 5920 nM. It also gave a GI50 (SF-539 CNS) of 1710 nM, a TGI (SF-539 CNS) of 3240 nM and a GI50 (NCI-H226 lung) of 2140 nM. It also gave a TGI (NCI-H226 lung) of 5740 nM, a GI50 (OVCAR-5 ovarian) of 1910 nM and a TGI (OVCAR-5 ovarian) of 4900 nM. It also gave a GI50 (HL-60(TB) leukemia) of 2290 nM, a TGI (HL-60(TB) leukemia) of 5240 nM and a GI50 (SF-295 CNS) of 1500 nM. It also gave a TGI (SF-295 CNS) of 2930 nM, a GI50 (KM12 colon) of 3080 nM and a TGI (KM12 colon) of 11300 nM. For the same molecule, the GI50 (A498 renal) was 1440 nM, the TGI (A498 renal) was 2770 nM and the GI50 (BT-549 breast) was 5640 nM. The TGI (BT-549 breast) was 20800 nM, the GI50 (TK-10 renal) was 1960 nM and the TGI (TK-10 renal) was 3840 nM. It also gave a GI50 (PC-3 prostate) of 1790 nM, a TGI (PC-3 prostate) of 4240 nM and a GI50 (SNB-19 CNS) of 2260 nM. It also gave a TGI (SNB-19 CNS) of 6350 nM, a GI50 (NCI-H23 lung) of 1860 nM and a TGI (NCI-H23 lung) of 4520 nM. It also gave a GI50 (SNB-75 CNS) of 1270 nM, a TGI (SNB-75 CNS) of 2620 nM and a GI50 (NCI-H522 lung) of 2020 nM. The TGI (NCI-H522 lung) was 5080 nM, the GI50 (OVCAR-8 ovarian) was 2250 nM and the TGI (OVCAR-8 ovarian) was 5910 nM. It also gave a GI50 (SN12C renal) of 1730 nM, a TGI (SN12C renal) of 3860 nM and a GI50 (SK-MEL-2 melanoma) of 1930 nM. For the same molecule, the TGI (SK-MEL-2 melanoma) was 3700 nM, the GI50 (MOLT-4 leukemia) was 3190 nM and the TGI (MOLT-4 leukemia) was 13300 nM. The GI50 (CCRF-CEM leukemia) was 2660 nM, the TGI (CCRF-CEM leukemia) was 9480 nM and the GI50 (UO-31 renal) was 1340 nM. For the same molecule, the TGI (UO-31 renal) was 2750 nM, the GI50 (HCC-2998 colon) was 1760 nM and the TGI (HCC-2998 colon) was 3240 nM. The GI50 (MALME-3M melanoma) was 1810 nM, the TGI (MALME-3M melanoma) was 3390 nM and the GI50 (NCI-H460 lung) was 1880 nM. The TGI (NCI-H460 lung) was 3690 nM, the GI50 (HCT-15 colon) was 1730 nM and the TGI (HCT-15 colon) was 3880 nM. The GI50 (HOP-62 NSCLC) was 1720 nM, the TGI (HOP-62 NSCLC) was 3440 nM and the GI50 (SF-268 CNS) was 1980 nM. It also gave a TGI (SF-268 CNS) of 4610 nM, a GI50 (IGROV1 ovarian) of 2400 nM and a TGI (IGROV1 ovarian) of 6650 nM. For the same molecule, the GI50 (CAKI-1 renal) was 1690 nM, the TGI (CAKI-1 renal) was 3230 nM and the GI50 (HCT-116 colon) was 1790 nM. It also gave a TGI (HCT-116 colon) of 4140 nM, a GI50 (NCI/ADR-RES ovarian) of 1800 nM and a TGI (NCI/ADR-RES ovarian) of 3970 nM. For the same molecule, the GI50 (SK-MEL-5 melanoma) was 1760 nM, the TGI (SK-MEL-5 melanoma) was 3190 nM and the GI50 (MDA-MB-435) was 1500 nM. The TGI (MDA-MB-435) was 3060 nM, the GI50 (SK-OV-3 ovarian) was 3190 nM and the TGI (SK-OV-3 ovarian) was 9800 nM. The GI50 (ACHN renal) was 1550 nM, the TGI (ACHN renal) was 2890 nM and the GI50 (UACC-62 melanoma) was 1660 nM. For the same molecule, the TGI (UACC-62 melanoma) was 3210 nM, the GI50 (HOP-92 NSCLC) was 1480 nM and the TGI (HOP-92 NSCLC) was 3350 nM. For the same molecule, the GI50 (OVCAR-4 ovarian) was 2130 nM, the TGI (OVCAR-4 ovarian) was 6350 nM and the GI50 (M14 melanoma) was 1810 nM. For the same molecule, the TGI (M14 melanoma) was 3470 nM, the GI50 (UACC-257 melanoma) was 2030 nM and the TGI (UACC-257 melanoma) was 4570 nM. For the same molecule, the GI50 (DU-145 prostate) was 2650 nM, the TGI (DU-145 prostate) was 7330 nM and the GI50 (SW-620 colon) was 1650 nM. For the same molecule, the TGI (SW-620 colon) was 3470 nM.
